Results published in paper PMC10463376, “Design, synthesis, in vitro anticancer, molecular docking and SAR studies of new series of pyrrolo[2,3-d]pyrimidine derivatives” (BMC Chemistry, 2023).

Columns and labels:
Assay type in all cases: cell-based, human
lung cell line (A549) = test: DNA fragmentation assay, A549; details: A549, IC50, 24 h, vs negative control (P < 0.01); Dox. higher than 4b
Procedure: The DNA fragmentation assay in a pancreatic cell line (Paca2), breast cancer cell lines (MCF-7) and lung cell line (A549) was performed in concordance with the premises established by Yawata with some modifications. Briefly, after 24 h of exposure of Paca2, MCF-7 and A549 cancer cell lines to the prepared compounds in different Petri dishes (60 × 15 mm, Greiner), the cells were suspended and homogenized in 1 ml of medium and then centrifuged for 10 min at 900 rpm. The genomic DNA was extracted as shown in Yawata. About 1 × 10^6 cells of each tested cancer cell line were treated with the IC50 values of the tested compounds. All the cells were collected via trypsinization and washed with Dulbecco`s Phosphate Buffered Saline. Then, the cells were treated with the lysis buffer containing 5 mM ethylenediaminetetraacetic acid (EDTA), 10 mM Tris (pH 7.4), 0.5% Triton X-100 and 150 mM NaCl for 35 min on ice. […] Finally, the percentage of fragmented DNA was determined by performing gel electrophoresis using 2% agarose gel containing 0.1 μg/ml ethidium bromide.
Pancreatic cancer cell line (Paca2), breast cancer cell line (MCF-7) and lung cancer cell line (A549) were used to determine the percentage of DNA fragmentation after the treatment with IC50 of the tested compounds. […] The percentage of fragmented DNA was measured from the absorbance reading at 600 nm wavelength using the following formula: […]

caspase 8 [1] = test: ELISA caspase 8 in A549 cells; details: control 5.83
Description: (§1) Elisa assay was used to determine the concentrations of Human caspases-3, -8, Bax, and Bcl2 in PACA2- and A549-treated cells. Also, the concentrations of caspase-8, Bax, and Bcl2 in MCF7-treated cells were detected. The procedures were followed up according to the instructions described in the following kits; Invitrogen human Caspase-3 Elisa Kit, Catalog KHO1091, DRG® human Caspase-8 ELISA Kit, Catalog (EIA-4863), Human Bax ELISA Kit (ab199080) and Human Bcl-2 ELISA Kit (ab119506) respectively. Shortly, the protocol described in the above kits was as followed; at the beginning, all the reagents, samples and standards were prepared. 100 μl of samples or standard were micro pipetted to each well of micro-well strip and kept at room temperature for 2 h. After washing the micro-well strips three times with washing buffer, the prepared antibody (anti-rabbit-IgG-HRP) at a concentration of 100 μl was added to each well at room temperature for 1 h. Then, the micro-well strips were washed again three times. Afterward, the prepared tetramethyl-benzidine (TMB) solution (100 μl) was added to the micro-well strips and kept for 10 min. […] The absorbance of all samples was measured at a wavelength of 460 nm and compared to that of the standard. Curve fitting software was used to plot a standard curve and the concentrations for the unknown samples were measured from the standard curve.

IL-8 = test: RT-qPCR IL-8 mRNA in A549; details: A549, compared with Dox.
Procedure: (§2) All of the extractions were conducted on ice with ice-cold reagents. Total RNA from the different cell lines was isolated using Trizol (Invitrogen; Life Technologies, USA) according to the method of Sthoeger et al.. The 260:280 ratios were measured to determine RNA quality after the isolation method was completed according to the manufacturer’s instructions. A high-capacity cDNA reverse transcription kit was used to produce complementary DNA (cDNA) (Applied Biosystems, USA). […] The relative gene expression method (i.e., ΔΔCT) was used to analyze the real-time PCR data, as explained in Applied Biosystem User Bulletin No. 2. Each sample and gene were normalized using the β-actin gene.

Bcl2 [2] = test: ELISA Bcl2 in A549 cells; details: control 16.21
Description: as §1

BAX [3] = test: ELISA BAX in A549 cells; details: control 5.84
Description: as §1

CDK4 = test: RT-qPCR CDK4 mRNA in A549; details: A549, compared with Dox.
Procedure: as §2

BAX [4] = test: ELISA BAX in Paca2 cells; details: control 3.86
Description: as §1

Bcl2 [5] = test: ELISA Bcl2 in Paca2 cells; details: control 16.23
Description: as §1

caspase 3 = test: ELISA caspase 3 in Paca2 cells; details: control 5.34
Description: as §1

caspase 8 [6] = test: ELISA caspase 8 in Paca2 cells; details: control 4.85
Description: as §1

Paca2 cells = test: Annexin V-FITC/PI apoptosis flow cytometry, Paca2; details: Paca2, 24 h, IC50
Procedure: The percentage of apoptotic cells was detected by using Annexin V-FITC kit catalog number (#K101-25). About 2X10^6 of MCF7 and Paca2 cells were washed in 500 µl of 1 × PBS. Then, the cells were centrifuged and the supernatant was discarded. The cells pellet were re-suspended in the annexin V incubation reagent. The annexin V incubation reagent contained 10 μl binding buffer (10 ×), 10 μl propidium iodide, 1 μl annexin V-FITC, and 79 μl deionized water. The cells were incubated in 100 μl annexin V incubation reagent for 15 min in the dark at room temperature. Finally, the apoptotic cell percentage was detected by flow cytometry using the FITC signal detector (usually FL-1) and PI staining by the phycoerythrin emission signal detector (usually FL-2).

SMILES | DNA fragmentation value (lung cell line (A549)) | caspase 8 level (ELISA) (caspase 8 [1]) | IL-8 mRNA level (IL-8) | Bcl2 level (ELISA) (Bcl2 [2]) | BAX level (ELISA) (BAX [3]) | CDK4 mRNA level (CDK4) | BAX level (ELISA) (BAX [4]) | Bcl2 concentration (ELISA) (Bcl2 [5]) | caspase 3 level (ELISA) (caspase 3) | caspase 8 level (ELISA) (caspase 8 [6]) | percentage of late apoptotic cells (Q1-UR) (Paca2 cells; control 0.54%) | percentage of necrotic cells (Q1-UL) (Paca2 cells; control 2.27%) | percentage of early apoptotic cells (Q1-LR) (Paca2 cells; control 4.46%)
COc1ccc(-c2c(Cl)n(-c3ccc(Cl)cc3Cl)c3ncnc(Cl)c23)cc1OC [Compound 4b, 4,6-dichloro-7-(2,4-dichlorophenyl)-5-(3,4-dimethoxyphenyl)-7H-pyrrolo[2,3-d]pyrimidine] | increased significantly | 16.84 pg/mL | down-regulated | 9.4 pg/mL | 14.83 pg/mL | down-regulated |  |  |  |  |  |  | 
CN1CCN(c2nc(C(Cl)(Cl)Cl)nc3c2c(-c2ccc(Br)cc2)c(Cl)n3-c2ccc(Cl)cc2Cl)CC1 [Compound 17, 5-(4-bromophenyl)-6-chloro-7-(2,4-dichlorophenyl)-4-(4-methylpiperazin-1-yl)-2-(trichloromethyl)-7H-pyrrolo[2,3-d]pyrimidine] |  |  |  |  |  |  | 11.85 pg/mL | 6.26 pg/mL | 9.14 pg/mL | 13.86 pg/mL | 0.86% | 6.17% | 4.74%
